Test results taken from patent US10793591B2, “Substituted nucleosides, nucleotides and analogs thereof” (priority 2012, dated 2020).
Where two headings read alike, the source gives them in different places.

Tests used:
[1] = molecular target: human mitochondrial RNA polymerase (Homo sapiens (Human), UniProt O00411); experiment: DdRp assay: incorporation of nucleotides by human mitochondrial RNA polymerase (HMRP); details: 100 μM NTP, single turnover, product band on gel
[2] = tested on: HCV genotype 1b HCV replicon harbored in Huh7 cells; experiment: Combination testing in HCV replicon (MacSynergy II); format: cell-based; details: for Synergy Volume: combination with compound 18, 72 h, MacSynergy II, Bliss independence model; for Determination: combination with compound 18, class from synergy volume
[3] = tested on: Huh-7 cells containing the self-replicating, subgenomic HCV replicon; experiment: HCV replicon assay (luciferase reporter); format: cell-based
[4] = tested on: mitochondrial protein synthesis (COX-I relative to SDH-A) in HepG2 cells
[5] = Hepatitis C virus, Huh-7, HCV replicon cells, 72 h, Bright-Glo luciferase, read-out: EC50

Chain of human mitochondrial RNA polymerase (O00411 42-1230): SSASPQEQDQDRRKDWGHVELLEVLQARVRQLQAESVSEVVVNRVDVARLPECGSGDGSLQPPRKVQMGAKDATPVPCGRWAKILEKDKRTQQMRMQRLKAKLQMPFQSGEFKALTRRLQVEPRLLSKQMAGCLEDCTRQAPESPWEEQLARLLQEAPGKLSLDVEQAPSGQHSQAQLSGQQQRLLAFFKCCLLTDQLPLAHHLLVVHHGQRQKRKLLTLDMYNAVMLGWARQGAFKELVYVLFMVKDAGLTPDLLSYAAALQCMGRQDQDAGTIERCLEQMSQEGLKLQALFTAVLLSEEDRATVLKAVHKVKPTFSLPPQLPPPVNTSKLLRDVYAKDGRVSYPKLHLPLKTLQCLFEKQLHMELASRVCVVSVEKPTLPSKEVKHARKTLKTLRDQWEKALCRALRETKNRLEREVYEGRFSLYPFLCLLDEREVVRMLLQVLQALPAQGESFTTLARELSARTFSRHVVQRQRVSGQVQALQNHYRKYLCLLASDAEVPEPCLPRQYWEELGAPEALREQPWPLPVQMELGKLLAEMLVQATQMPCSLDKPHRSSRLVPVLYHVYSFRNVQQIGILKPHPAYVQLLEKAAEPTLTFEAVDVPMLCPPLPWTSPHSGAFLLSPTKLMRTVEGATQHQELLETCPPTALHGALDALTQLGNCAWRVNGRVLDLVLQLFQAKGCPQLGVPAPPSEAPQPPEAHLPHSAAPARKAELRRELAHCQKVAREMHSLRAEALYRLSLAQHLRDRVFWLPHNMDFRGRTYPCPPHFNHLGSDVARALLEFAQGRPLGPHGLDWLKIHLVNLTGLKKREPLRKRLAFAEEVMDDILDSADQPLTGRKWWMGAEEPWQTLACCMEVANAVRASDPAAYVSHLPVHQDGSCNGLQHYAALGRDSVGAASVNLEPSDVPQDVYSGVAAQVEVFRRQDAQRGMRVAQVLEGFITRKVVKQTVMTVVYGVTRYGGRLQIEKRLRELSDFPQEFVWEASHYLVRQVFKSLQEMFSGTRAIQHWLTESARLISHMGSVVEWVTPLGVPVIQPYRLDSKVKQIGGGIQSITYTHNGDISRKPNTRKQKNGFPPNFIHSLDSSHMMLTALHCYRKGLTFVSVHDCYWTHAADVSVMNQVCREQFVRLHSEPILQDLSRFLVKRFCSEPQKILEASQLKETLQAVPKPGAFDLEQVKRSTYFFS

| Compound | EC50 ([3]; Hepatitis C virus, Huh-7, 72 h) | further results |
| --- | --- | --- |
| C[C@@]1(F)[C@H](O)[C@@H](COP(=O)(O)OP(=O)(O)OP(=O)(O)O)O[C@H]1n1ccc(=O)[nH]c1=O [2′-Me-2′-F-UTP] |  | incorporation by HMRP (template for UTP analogs, FIG. 10) [1]: not efficient substrates for incorporation by HMRP |
| Nc1ncnc2c1ncn2[C@@H]1O[C@H](COP(=O)(O)OP(=O)(O)OP(=O)(O)O)[C@@H](O)[C@H]1O [ATP] |  | incorporation by HMRP (template for GTP analogs, FIG. 11) [1]: poor substrate for incorporation |
| COC(=O)N[C@H](C(=O)N1CCC[C@H]1c1nc(-c2ccc(-c3ccc(-c4c[nH]c([C@@H]5CCCN5C(=O)[C@@H](NC(=O)OC)C(C)C)n4)cc3)cc2)c[nH]1)C(C)C [BMS-790052 (4001)] |  | Synergy Volume [2]: 38.01 μM^2%; Determination [2]: Synergistic (volumes in the 25-100 range indicate synergistic behavior) |
| CC(C)OC(=O)[C@H](C)NP(=O)(OC[C@@]1(F)O[C@@H](n2ccc(=O)[nH]c2=O)[C@](C)(O)[C@@H]1O)Oc1ccccc1 (stereo partly drawn) [Compound 2] | < 1000 nM |  |
| C[C@H](NP(=O)(OC[C@@]1(F)O[C@@H](n2ccc(=O)[nH]c2=O)[C@](C)(O)[C@@H]1O)Oc1ccccc1)C(=O)OC1CCCCC1 (stereo partly drawn) [Compound 3] | < 1000 nM |  |
| C[C@H](NP(=O)(OC[C@@]1(F)O[C@@H](n2cnc3c(=O)[nH]c(N)nc32)[C@](C)(O)[C@@H]1O)Oc1ccccc1)C(=O)OC1CCCCC1 (stereo partly drawn) [Compound 11] | < 1000 nM |  |
| CCOc1nc(N)nc2c1ncn2[C@@H]1O[C@](F)(COP(=O)(N[C@@H](C)C(=O)OC2CCCCC2)Oc2ccccc2)[C@@H](O)[C@@]1(C)O (stereo partly drawn) [Compound 16] | < 1000 nM |  |
| CCOc1nc(N)nc2c1ncn2[C@@H]1O[C@](F)(COP(=O)(N[C@@H](C)C(=O)OCC(C)(C)C)Oc2ccccc2)[C@@H](O)[C@@]1(C)O (stereo partly drawn) [Compound 17] | < 1000 nM |  |
| CC(C)OC(=O)C(C)N[P@](=O)(OC[C@@]1(F)O[C@@H](n2ccc(=O)[nH]c2=O)[C@](C)(O)[C@@H]1O)Oc1ccccc1 (stereo partly drawn) [Compound 18] | < 1000 nM |  |
| CC(C)OC(=O)C(C)N[P@@](=O)(OC[C@@]1(F)O[C@@H](n2ccc(=O)[nH]c2=O)[C@](C)(O)[C@@H]1O)Oc1ccccc1 (stereo partly drawn) [Compound 19] | < 1000 nM |  |
| CC(N[P@](=O)(OC[C@@]1(F)O[C@@H](n2ccc(=O)[nH]c2=O)[C@](C)(O)[C@@H]1O)Oc1ccccc1)C(=O)OC1CCCCC1 (stereo partly drawn) [Compound 20] | < 1000 nM |  |
| CC(N[P@@](=O)(OC[C@@]1(F)O[C@@H](n2ccc(=O)[nH]c2=O)[C@](C)(O)[C@@H]1O)Oc1ccccc1)C(=O)OC1CCCCC1 (stereo partly drawn) [Compound 21] | < 1000 nM |  |
| C#C[C@]1(O)[C@H](n2ccc(=O)[nH]c2=O)O[C@](F)(COP(=O)(N[C@@H](C)C(=O)OC2CCCCC2)Oc2ccccc2)[C@H]1O (stereo partly drawn) [Compound 22] | < 1000 nM |  |
| C#C[C@]1(O)[C@H](n2cnc3c(OCC)nc(N)nc32)O[C@](F)(CO[P@](=O)(N[C@@H](C)C(=O)OC2CCCCC2)Oc2ccccc2)[C@H]1O [Compound 34] |  | EC50 ([3]; read-out: EC50): < 1000 nM |
| C#C[C@]1(O)[C@H](n2cnc3c(OCC)nc(N)nc32)O[C@](F)(CO[P@@](=O)(N[C@@H](C)C(=O)OC2CCCCC2)Oc2ccccc2)[C@H]1O [Compound 35] |  | EC50 ([3]; read-out: EC50): < 1000 nM |
| CCOc1nc(N)nc2c1ncn2[C@@H]1O[C@]2(F)CO[P@](=O)(OC(C)C)O[C@H]2[C@@]1(C)F [Compound 42] |  | EC50 [3, 5]: < 1000 nM |
| CC(C)OC(=O)[C@H](C)NP(=O)(OC[C@@]1(F)O[C@@H](n2ccc(=O)[nH]c2=O)[C@](C)(O)[C@@H]1O)Oc1cccc2ccccc12 (stereo partly drawn) [Compound 54] | < 1000 nM |  |
| CC(C)OC(=O)[C@H](C)NP(=O)(OC[C@@]1(F)O[C@@H](n2ccc(=O)[nH]c2=O)[C@](C)(O)[C@@H]1O)Oc1ccc(Cl)cc1 (stereo partly drawn) [Compound 56] | < 1000 nM |  |
| CC(=O)O[C@H]1[C@@](C)(O)[C@H](n2ccc(=O)[nH]c2=O)O[C@]1(F)COP(=O)(N[C@@H](C)C(=O)OC(C)C)Oc1ccc(Cl)cc1 (stereo partly drawn) [Compound 57] | < 1000 nM |  |
| CC(C)(C)C(=O)SCCCCOP(=O)(OCCCCSC(=O)C(C)(C)C)OC[C@@]1(F)O[C@@H](n2ccc(=O)[nH]c2=O)[C@](C)(O)[C@@H]1O [Compound 60] | 10000 to 100000 nM |  |
| CC(C)OC(=O)OCOP(=O)(OCOC(=O)OC(C)C)OC[C@@]1(F)O[C@@H](n2ccc(=O)[nH]c2=O)[C@](C)(F)[C@@H]1O [Compound 61] |  | EC50 [3, 5]: < 1000 nM |
| CC(C)OC(=O)[C@H](C)NP(=O)(OC[C@@]1(F)O[C@@H](n2ccc(=O)[nH]c2=O)[C@](C)(Cl)[C@@H]1O)Oc1ccccc1 (stereo partly drawn) [Compound 62] | < 1000 nM |  |
| CCOc1nc(N)nc2c1ncn2[C@@H]1O[C@](F)(COP(=O)(N[C@@H](C)C(=O)OC2CCCCC2)Oc2ccccc2)[C@@H](O)[C@@]1(C)F (stereo partly drawn) [Compound 66] | < 1000 nM |  |
| CCOC(=O)[C@H](C)NP(=O)(N[C@@H](C)C(=O)OCC)OC[C@@]1(F)O[C@@H](n2ccc(=O)[nH]c2=O)[C@](C)(O)[C@@H]1O [Compound 67] | 1000 to 10000 nM |  |

| Compound | EC50 ([3]; Hepatitis C virus, Huh-7, 72 h) | further results |
| --- | --- | --- |
| CC(C)OC(=O)[C@H](C)NP(=O)(N[C@@H](C)C(=O)OC(C)C)OC[C@@]1(F)O[C@@H](n2ccc(=O)[nH]c2=O)[C@](C)(O)[C@@H]1O [Compound 70] | 1000 to 10000 nM |  |
| C=C=C[C@]1(O)[C@H](n2ccc(=O)[nH]c2=O)O[C@](F)(CO[P@@](=O)(N[C@@H](C)C(=O)OC(C)C)Oc2ccccc2)[C@H]1O [Compound 73] | 1000 to 10000 nM |  |
| C=C[C@]1(O)[C@H](n2ccc(=O)[nH]c2=O)O[C@](F)(COP(=O)(N[C@@H](C)C(=O)OC(C)C)Oc2ccccc2)[C@H]1O (stereo partly drawn) [Compound 77] | 1000 to 10000 nM |  |
| CCOc1nc(N)nc2c1ncn2[C@@H]1O[C@]2(F)COP(=O)(OCC)O[C@H]2[C@@]1(C)F (stereo partly drawn) [Compound 79] | < 1000 nM |  |
| CCOc1nc(N)nc2c1ncn2[C@@H]1O[C@]2(F)COP(=O)(OCC(C)C)O[C@H]2[C@@]1(C)F (stereo partly drawn) [Compound 80] | 1000 to 10000 nM |  |
| CCOc1nc(N)nc2c1ncn2[C@@H]1O[C@]2(F)COP(=O)(OC(C)C)O[C@H]2[C@@]1(C)F (stereo partly drawn) [Compound 81] | < 1000 nM |  |
| CCOc1nc(N)nc2c1ncn2C1O[C@](F)(COP(=O)(N[C@@H](C)C(=O)OC(C)C)Oc2cccc3ccccc23)[C@@H](O)[C@@]1(C)F (stereo partly drawn) [Compound 83] | < 1000 nM |  |
| CCOc1nc(N)nc2c1ncn2C1O[C@](F)(COP(=O)(N[C@@H](C)C(=O)OC(C)C)Oc2ccccc2)[C@@H](O)[C@@]1(C)F (stereo partly drawn) [Compound 85] | < 1000 nM |  |
| CCOc1nc(N)nc2c1ncn2C1O[C@](F)(COP(=O)(N[C@@H](C)C(=O)OCC(C)C)Oc2ccccc2)[C@@H](O)[C@@]1(C)F (stereo partly drawn) [Compound 86] | < 1000 nM |  |
| CCOc1nc(N)nc2c1ncn2[C@@H]1O[C@](F)(COP(=O)(N[C@@H](C)C(=O)OC2CCCC2)Oc2ccccc2)[C@@H](O)[C@@]1(C)F (stereo partly drawn) [Compound 87] | < 1000 nM |  |
| CCOc1nc(N)nc2c1ncn2[C@@H]1O[C@](F)(COP(=O)(N[C@@H](C)C(=O)OC(CC)CC)Oc2ccccc2)[C@@H](O)[C@@]1(C)F (stereo partly drawn) [Compound 88] | < 1000 nM |  |
| CCOc1nc(N)nc2c1ncn2[C@@H]1O[C@](F)(COP(=O)(N[C@@H](C)C(=O)OCC(C)(C)C)Oc2cccc3ncccc23)[C@@H](O)[C@@]1(C)F (stereo partly drawn) [Compound 89] | < 1000 nM |  |
| CCOc1nc(N)nc2c1ncn2[C@@H]1O[C@](F)(COP(=O)(N[C@@H](C)C(=O)OCC(C)(C)C)Oc2cccc3ccccc23)[C@@H](O)[C@@]1(C)F (stereo partly drawn) [Compound 90] | < 1000 nM |  |
| CCOc1nc(N)nc2c1ncn2[C@@H]1O[C@](F)(COP(=O)(N[C@@H](C)C(=O)OCC(C)(C)C)Oc2ccccc2)[C@@H](O)[C@@]1(C)F (stereo partly drawn) [Compound 91] | < 1000 nM |  |
| CCc1cc(CC[C@]2(C3CCCC3)CC(O)=C(Cc3nc4nc(C)cc(C)n4n3)C(=O)O2)cc(CC)n1 [Filibuvir (3007)] |  | Synergy Volume [2]: 23.51 μM^2%; Determination [2]: Additive (volumes in the −25-25 range indicate additive behavior) |
| CNC(=O)c1c(-c2ccc(F)cc2)oc2cc(N(CCO)S(C)(=O)=O)c(C3CC3)cc12 [HCV-796 (3004)] |  | Synergy Volume [2]: 81.72 μM^2%; Determination [2]: Synergistic (volumes in the 25-100 range indicate synergistic behavior) |
| COc1nc(N)nc2c1ncn2[C@@H]1O[C@H](COP(=O)(N[C@@H](C)C(=O)OCC(C)(C)C)Oc2cccc3ccccc23)[C@@H](O)[C@@]1(C)O (stereo partly drawn) [INX-08189/BMS-986094] |  | inhibition of mitochondrial protein synthesis [4]: strongly inhibit mitochondrial protein synthesis |
| NC(=O)c1ncn([C@@H]2O[C@H](CO)[C@@H](O)[C@H]2O)n1 [Ribavirin (5012), Ribavirin] |  | Synergy Volume [2]: 6.77 μM^2%; Determination [2]: Additive (volumes in the −25-25 range indicate additive behavior) |
| COc1ccc2c(O[C@@H]3C[C@H]4C(=O)N[C@]5(C(=O)NS(=O)(=O)C6CC6)C[C@H]5/C=C\CCCCN(C)C(=O)[C@@H]4C3)cc(-c3nc(C(C)C)cs3)nc2c1C [TMC-435 (1013)] |  | Synergy Volume [2]: 97.17 μM^2%; Determination [2]: Synergistic (volumes in the 25-100 range indicate synergistic behavior) |
| CC(C)(C)C#Cc1cc(N(C(=O)[C@H]2CC[C@H](C)CC2)[C@H]2CC[C@H](O)CC2)c(C(=O)O)s1 [VX-222 (3003)] |  | Synergy Volume [2]: 32.35 μM^2%; Determination [2]: Synergistic (volumes in the 25-100 range indicate synergistic behavior) |
| CCC[C@H](NC(=O)[C@@H]1[C@H]2CCC[C@H]2CN1C(=O)[C@@H](NC(=O)[C@@H](NC(=O)c1cnccn1)C1CCCCC1)C(C)(C)C)C(=O)C(=O)NC1CC1 [VX-950 (1001)] |  | Synergy Volume [2]: 32.28 μM^2%; Determination [2]: Synergistic (volumes in the 25-100 range indicate synergistic behavior) |
| Cc1cn([C@H]2C=C[C@@H](CO)O2)c(=O)[nH]c1=O [d4T] |  | inhibition of mitochondrial protein synthesis [4]: not to inhibit mitochondrial protein synthesis at concentrations up to 100 μM |
| Nc1ccn([C@H]2CC[C@@H](CO)O2)c(=O)n1 [ddC] |  | inhibition of mitochondrial protein synthesis [4]: strongly inhibit mitochondrial protein synthesis |
